Assay results as given in ChEMBL document CHEMBL1129854, “Novel small molecule neurotensin antagonists: 3-(1,5-diaryl-1,5-dioxopentan-3-yl)benzoic acids” (Bioorg Med Chem Lett, 1997).

Columns and labels:
HT-29 = experiment: In vitro ability to inhibit the calcium mobilization induced by neurotensin (NT) in HT-29 cells; format: functional, cell-based; conditions: Homo sapiens
[1] = Inhibition of the binding of [3H]NT to neurotensin (NT) receptor in mouse brain tissue; format: tissue-based

IC50 (HT-29) | Ki [1] | SMILES
160 nM | 3.9 nM | COc1cccc(OC)c1-c1cc(C(=O)NC2(C(=O)O)C3CC4CC(C3)CC2C4)nn1-c1ccnc2cc(Cl)ccc12 (stereo not drawn) [REMINERTANT]
 | > 10000 nM | O=C(O)c1cccc(C(CC(=O)c2ccccc2)CC(=O)c2ccccc2)c1
